According to patent publication US9884066B2, “Bile acid-basic amino acid conjugates and uses thereof” (priority 2013, dated 2018):
Values joined by “and” are separate entries in the source; they are usually repeats but may differ in a detail not shown here. Identical values can stand only once. Like-named read-outs stand apart in the source and are kept apart here.

What was measured:
[1] = test system: mice fed a high fat diet (HFD); assay: High fat diet (HFD) model in mice, five-week feeding with supplemented diets
[2] = test system: livers of mice fed a high fat diet (HFD); assay: Histological evaluation of livers by H&E staining, scored by Modified Brunt Criteria (five-week HFD model); type: in vivo, C57BL mice; conditions: end of week 5; for Portal inflammation / Ballooning and disarray / Fibrosis: score per liver section; for Ballooning and disarray: * = and megakarya; for Fibrosis: ** = oval cell proliferation
Protocol: For liver histology, animals were sacrificed and liver tissues were removed and fixed in 4% formalin at room temperature. Liver sections were subjected to Hematoxylin-Eosin staining (PathoVet Veterinary Pathology Services, Rehovot, Israel).
Histological evaluation of livers was performed by H&E staining at the end of week 5. In the figure, arrows indicate micro and macrovesicular steatosis, and arrow heads indicate hepatocyte ballooning. […] This histological observation was in correlation with the elevated levels of blood liver enzymes SGOT and SGPT described above.

[3] = test system: mice fed a high fat diet (HFD); conditions: for Liver weight: FIG. 12d
Description: Mice were randomly divided into two dietary groups:
1) Control diet: low-fat diet (LFD), 16% calories from fat (n=5);
2) High-fat diet (HFD): 60% calories from fat (mainly palm stearin) (n=16).
In order to determine the effects of CDCArg following the onset of liver steatosis, mice were first treated for 10 weeks with HFD to develop hepatic fat accumulation. Thereafter, the HFD-fed mice were divided to two equal groups (n=8 in each group): (a) continued the previous HFD treatment, and (b) HFD+CDCArg 0.5% w/w. In this part of the experiment mice were pair-fed (15.5 kCal/day per mice). The LFD control group consumed on average the same amount of calories per day per mice. The duration of treatment with CDCArg was four (4) weeks. Food consumption and gain of weight were evaluated.
To assess the impact of CDCArg on intestinal absorption, fecal lipid contents were measured before and after CDCArg consumption. Total lipids were extracted from feces using Folch's method (Folch et al., 1957, J Biol Chem, 226:497-509) after collecting feces during weeks 9-10 and 12-13. […] The effect of CDCArg on insulin resistance was evaluated using intraperitoneal glucose tolerance test (IPGTT). Glucose tolerance was assessed in the mice during the eighth and fourteenth weeks of the study (before and after the beginning of treatment with CDCArg). IPGTT was performed in 12 hours-fasted mice by injecting glucose (2 g/kg in 20% solution) intraperitoneally. Blood samples were obtained by cutting the tail tip and glucose concentration was measured after 0, 30, 60, 90, and 120 minutes.

[4] = test system: mice fed a high fat diet (HFD); assay: Intraperitoneal glucose tolerance test (IPGTT) in HFD-fed mice; type: in vivo; conditions: week fourteen; glucose 2 g/kg i.p., 12 hours-fasted; FIG. 11
Description: FIG. 11. Effect of CDCArg on insulin resistance as evaluated by intra-peritoneal glucose tolerance test (IPGTT). (A) IPGTT performed at weeks eight and (B) fourteen (before and after the beginning of treatment). Values are expressed as mean±SEM (n=8-9 animals per group). Means with * are statistically higher than Control group, p<0.05 (t.test (a) one way ANOVA, Post Hoc dunnett test (b)).

[5] = test system: mice fed a high fat diet (HFD); conditions: mouse, in vivo
[6] = test system: AMPK; assay: Liver AMPK and pAMPK levels by Western blot; type: in vivo, mice
Protocol: The levels of AMPK and pAMPK were analyzed using Western blot analysis.

[7] = test system: PGC1α; assay: Liver gene expression, mRNA by reverse-transcription and real time PCR; type: in vivo, mice; conditions: GAPDH normalizing gene; FIG. 13A
Description: (§1) FIG. 13. Effect of CDCArg on lipogenic gene expression and energy expenditure related genes in the liver. Treatments: mice were fed with LFD for 14 weeks or with HFD for 10 weeks. At week 10 the HFD group was divided randomly into two equal groups that were pair fed. One group received HFD, while the other group received HFD+CDCArg. mRNA levels of (A) PGC1α, (B) PPARα. (C) Protein level of sterol regulatory element binding protein 1c (SREBP1). *p<0.05, statistically different from control by student t-test. GAPDH was used as housekeeping normalizing gene.
(§2) Gene expression analyses of PPARα and PGC1α were performed by quantifying mRNA levels by reverse-transcription and real time PCR. GAPDH (glyceraldehyde 3-phosphate dehydrogenase) was used as housekeeping normalizing gene. The following primers were used: […]

[8] = test system: PPARα; assay: as above; type: in vivo, mice; conditions: GAPDH normalizing gene; FIG. 13B
Description: as §1, §2

[9] = test system: SREBP1c; assay: Liver protein level by Western blot; type: in vivo, mice; conditions: beta-actin as control; FIG. 13C
Description: as §1
SREBP1c was analyzed by Western blot analysis using beta-actin as control. Abs: Anti SREBP-1 Santa Cruse (Sc-367); Secondary goat Anti-Rabbit IgG, Jackson ImmunoResearch, Mouse Anti-Actin (612656) BD Transduction Laboratories. Secondary goat Anti-mouse IgG, Jackson ImmunoResearch.

N=C(N)NCCC[C@H](N)C(=O)O [Arg, L-arginine, reference compound]
Average triglycerides in the blood ([1]; end of week 5, FIG. 5a): higher level of blood triglycerides
Average total cholesterol in the blood ([1]; end of week 5, compared to control low fat diet, FIG. 4): significantly increased levels of total blood cholesterol
Liver damage by histology (H&E staining) ([2]; FIG. 9): increased liver damage
Portal inflammation [2]: 0
Ballooning and disarray [2]: 0
Fibrosis [2]: 0

CCOC(=O)[C@H](CCCNC(=N)N)NC(=O)CC[C@@H](C)[C@H]1CC[C@H]2[C@@H]3[C@H](O)C[C@@H]4C[C@H](O)CC[C@]4(C)[C@H]3CC[C@]12C [CDCArg, Chenodeoxycholyl-Arginine-Ethyl Ester]
Average weight of adipose tissue (testicular fat) ([1]; end of week 5, compared to HFD alone or HFD+Arg, FIG. 3): significantly lower increase in testicular fat weight
Average liver weight ([1]; end of week 5, compared to control diet, FIG. 7): no difference in liver weight compared to control
Average body weight (increase) ([1]; five weeks, among groups that consumed a high fat diet, FIG. 2): lowest increase in body weight
Plasma level of insulin ([1]; five weeks, compared to the HFD group, FIG. 8b): significantly decreased
Plasma level of leptin ([1]; five weeks, compared to the HFD group, FIG. 8c): significantly decreased
Body weight gain ([3]; HFD+CDCArg 0.5% w/w for 4 weeks after 10 weeks HFD, vs continued HFD, FIG. 10a): prevented this weight gain
Adipose tissue weight ([3]; HFD+CDCArg compared to the HFD group, FIG. 10b): substantially lower
Liver micro and macro steatosis (histological evaluation) ([3]; HFD+CDCArg vs HFD group, FIG. 12e): lesser liver micro and macro steatosis
Liver weight ([3]; HFD+CDCArg vs HFD group): significantly lower
Liver weight ([3]; HFD+CDCArg vs control (LFD) group): even lesser than in control
Alkaline phosphatase levels in plasma ([3]; mouse, in vivo): not significantly altered
Plasma albumin levels ([3]; mouse, in vivo): significantly higher
SGPT levels ([3]; plasma, HFD+CDCArg compared with the HFD group, FIG. 12a): significantly lower
SGOT levels ([3]; plasma, HFD+CDCArg compared with the HFD group, FIG. 12b): significantly lower
Fat contents in feces ([3]; weeks 12-13, Folch's method, FIG. 10d): significantly higher
Area under the curve of the glycemic response (IPGTT) [4]: decreasing the area under the curve of the glycemic response
Peak glucose values in the IPGTT [4]: lowering the peak glucose values
General toxicity (plasma creatinine, sodium, potassium and chloride levels) [5]: without toxicity effects
Saturated fat-induced liver damage (blood SGOT, SGPT) [5]: did not potentiate saturated fat-induced liver damage
Portal inflammation [2]: 0 and 1
Ballooning and disarray [2]: 0
Fibrosis [2]: 0
Ratio of phosphorylated AMPK (pAMPK) to AMPK [6]: tending to be higher
PGC1α mRNA level in the liver [7]: activated
PPARα mRNA level in the liver [8]: activated
SREBP1c protein expression in the liver [9]: suppress the protein expression
